# Columns and labels:
# [1] = pH 7.4
# [2] = pH 7.4; remark: listed apart in the source
# Experimental: Kinetics for release of N-(6-(2,4-dinitrophenyl)aminohexanoyl)-serine from O—(N-(9-fluorenylmethoxycarbonyl-N-phenyl)aminomethyl)-serine in 0.1 M HEPES buffer, 15 mM NaCl, pH 7.40, 37° C. are shown in FIG. 4.
# [3] = Release of Nε-2,4-dinitrophenyl-L-lysine from model linker carbamates (β-eliminative cleavage), HPLC; assay type: physicochemical; details: after 5 days at 37° C. and pH 7.4; no observable release, below estimated detection limit
# Experimental: A series of model linker scaffolds having a range of functional groups as potential pKa modulators (substituted aromatics, ketones, nitriles, sulfones) were designed, prepared and linked via carbamate bonds to Ne-2,4-dinitrophenyl-L-lysine (Ne-DNP-Lys) for evaluation of release rates. DNP-Lys was chosen as the released moiety as it is water soluble and is a strong chromophore to permit HPLC-UV analysis.
# The rates of release of Nε-2,4-dinitrophenyl-L-lysine from these compounds were determined at pH 7.4 or pH 8.3, 37° C., by HPLC analysis. Kinetic analyses of the release reactions were performed by HPLC (C18; linear methanol/water+0.5% HOAc gradient) using a UV/vis monitor at 350 nm. The areas under the Lys(DNP) (“P”) and starting material (“S”) peaks were integrated to determine extent of reaction (“R”) as R=P/(S+P). Reaction rates were calculated from the slope the line obtained by linear regression analysis of a plot of ln(1−R) versus time.
# [4] = Hydrolysis of carbamate in 50% human serum; assay type: in vitro ADME; details: after 1 week at 37° C.
# Text: In general, compared to C—H, a) electron withdrawing groups at the beta position increase the rate; b) alkyl groups at the alpha position increase the rate; and c) aryl moieties at the alpha position decrease the rate.
smiles,measurement,setting,value
"O=C(O)[C@H](CSCN(C(=O)OCC1c2ccccc2-c2ccccc21)c1ccccc1)Nc1ccc([N+](=O)[O-])cc1[N+](=O)[O-] [Example 11C, S—(N-(9-Fluorenylmethoxycarbonyl-N-Phenylamino)Methyl)N-(2,4-Dinitrophenyl)-Cysteine]","T1/2 of release of N-(2,4-dinitrophenyl)-cysteine",[1],4.17 days
O=C(CCCCCNc1ccc([N+](=O)[O-])cc1[N+](=O)[O-])N[C@@H](COCN(C(=O)OCC1c2ccccc2-c2ccccc21)c1ccccc1)C(=O)O [Example 11B],"T1/2 of release of N-(6-(2,4-dinitrophenyl)aminohexanoyl)-serine",[2],16.7 days
"O=C(N[C@@H](CCCCNc1ccc([N+](=O)[O-])cc1[N+](=O)[O-])C(=O)O)OCc1ccccc1 [O-benzyl-N—(Nε-2,4-dinitrophenyl-L-lysine)-carbamate]","release of Nε-2,4-dinitrophenyl-L-lysine (cleavage)",[3],< 0.25%
same,hydrolysis in 50% human serum,[4],no detectable hydrolysis

# Reference: patent publication US8754190B2, “Controlled release from macromolecular conjugates” (Prolynx LLC, priority 2010, dated 2014)
